According to patent US20020086278A1, “CHROMOGENIC MEDIA CONTAINING BLOOD OR HEMIN” (priority 1999, published 2002):
Where two headings read alike, the source gives them in different places.

How the values were obtained:
[1] = Precipitate of chromogen on pre-plated media; assay type: physicochemical; conditions: 50 μl DMSO solution on pre-plated media
Method: 50 μl of each chromogen solution was added to the surface of each of the following pre-plated media (one chromogen solution per plate):
The solution was dispersed using a spreader and allowed to dry 3-4 hours in a hood.

[2] = test system: Entercoccus faecalis (enfa); experiment: Example 3: colony color on chromogenic TSA II with 5% sheep blood (chromogen in medium); assay type: cell-based
[3] = test system: Pseudomonas aeruginosa (psae); experiment: as above; assay type: cell-based; conditions: for Colony Color: CO2, 21 h
[4] = test system: Klebsiella pneumoniae (klpn); experiment: as above; assay type: cell-based
[5] = test system: Serratia marcescens (sema); experiment: as above; assay type: cell-based
E. faecium (enfu) = experiment: as above; assay type: cell-based; conditions: for Colony Color: enfu 49032, 21 h
S. milleri (stmi) = experiment: as above; assay type: cell-based; conditions: for Colony Color: stmi 6249, 21 h
[6] = test system: Streptococcus agalactiae (stag); experiment: as above; assay type: cell-based
milu 9341 = experiment: as above; assay type: cell-based; conditions: CO2, 21 h
Salmonella spp. (sasp) = assay type: cell-based; conditions: for Colony Color: CO2, 21 h
55 strains = experiment: Example 3: color, hemolytic activity and growth over all 55 strains; assay type: cell-based; conditions: chromogenic TSA II
Excerpt: Steers, E. et al., Antibiot.

[7] = test system: Aeromonas hydrophilia (aehy); experiment: Example 3: colony color on chromogenic TSA II with 5% sheep blood (chromogen in medium); assay type: cell-based; conditions: for Colony Color: CO2, 21 h
S pyogenes (stpy) = experiment: as above; assay type: cell-based; conditions: for Colony Color: 21 h
[8] = test system: Branhamella catarrhalis (brca); experiment: as above; assay type: cell-based; conditions: for Colony Color: CO2, 21 h
[9] = test system: E. coli (non-O157) (esco); assay type: cell-based
[10] = test system: Citrobacter freundii (cifr); experiment: Example 3: colony color on chromogenic TSA II with 5% sheep blood (chromogen in medium); assay type: cell-based; conditions: for Colony Color: CO2, 21 h
Candida albicans (caal) = experiment: as above; assay type: cell-based; conditions: for Colony Color: caal 10231, 24 h
[11] = test system: Staphylococcus Coag Neg (step); experiment: as above; assay type: cell-based; conditions: for Colony Color: 21 h
cakr 34135 = experiment: as above; assay type: cell-based; conditions: CO2, 21 h
[12] = test system: Staphylococcus aureus (stau); experiment: as above; assay type: cell-based
S. pneumoniae (stpn) = experiment: as above; assay type: cell-based
[13] = Color contrast of chromogen on blood plate
[14] = chromogenic TSA II with 5% Sheep Blood, 0.1 g/l, 6 strains tested
[15] = chromogenic TSA II with 5% Sheep Blood, 0.1 g/l, 3 strains tested
[16] = chromogenic TSA II with 5% Sheep Blood, 0.1 g/l, 1 strain tested
[17] = chromogenic TSA II with 5% Sheep Blood, 0.1 g/l, 2 strains tested
[18] = chromogenic TSA II with 5% Sheep Blood, 0.1 g/l, 5 strains tested

O=C([O-])[C@H]1O[C@@H](Oc2c[nH]c3ccc(Br)c(Cl)c23)[C@H](O)[C@@H](O)[C@@H]1O.[Na+] [X-Glucuro(s), 5-Br-4-Cl-3-indolyl-β-D-glucuronide (sodium salt)]
Precipitate when spread / placed on the plated media [1]: remained clear

Magenta-caprylate [M-Cap]
Colony Color (Summary) [2, 14]: 0
Colony Color ([2]; enfa 597, CO2, 21 h): 0
Colony Color ([2]; enfa 597, air, 21 h): 0
Colony Color ([2]; enfa 10741, CO2, 21 h): 0
Colony Color ([2]; enfa 10741, air, 21 h): 0
Colony Color ([2]; enfa 12953, CO2, 21 h): 0
Colony Color ([2]; enfa 12953, air, 21 h): 0
Colony Color ([2]; enfa 14506, CO2, 21 h): 0
Colony Color ([2]; enfa 14506, air, 21 h): 0
Colony Color ([2]; enfa 29212, CO2, 21 h): 0
Colony Color ([2]; enfa 29212, CO2, 24 h): 0
Colony Color ([2]; enfa 29212, air, 21 h): 0
Colony Color ([2]; enfa 29212, air, 24 h): 0
Colony Color (Summary) [3, 15]: 0
Colony Color ([3]; psae 9027): 0
Colony Color ([3]; psae 15442): 0
Colony Color ([3]; psae 33607): 0
Colony Color (Summary) [4, 15]: 0
Colony Color ([4]; klpn 13883, CO2, 21 h): 0
Colony Color ([4]; klpn 33495, CO2, 24 h): 0
Colony Color ([4]; klpn 33495, air, 24 h): 0
Colony Color ([4]; klpn 33606, CO2, 21 h): 0
Colony Color (Summary) [5, 16]: 0
Colony Color ([5]; sema 13880, CO2, 21 h): 0
Colony Color (Summary) (E. faecium (enfu); [16]): 0
Colony Color (E. faecium (enfu); CO2): 0
Colony Color (E. faecium (enfu); air): 0
Colony Color (Summary) (S. milleri (stmi); [17]): 0
Colony Color (S. milleri (stmi); CO2): 0
Colony Color (S. milleri (stmi); air): 0
Colony Color (Summary) [6, 15]: 0
Colony Color ([6]; stag 4768, CO2, 21 h): 0
Colony Color ([6]; stag 4768, air, 21 h): 0
Colony Color ([6]; stag 12386, CO2, 21 h): 0
Colony Color ([6]; stag 12386, CO2, 24 h): 0
Colony Color ([6]; stag 12386, air, 24 h): 0
Colony Color (milu 9341): 0
Colony Color (Summary) (Salmonella spp. (sasp); [17]): 0
Colony Color (Salmonella spp. (sasp); saty 19430): 0
Colony Color (Salmonella spp. (sasp); satym 14028): 0
Activity (color) for most organisms (55 strains): inactive
Colony Color ([7]; aehy 7965): 0
Colony Color ([7]; aehy 7966): 0
Colony Color ([7]; aehy 49847): 0
Colony Color (Summary) [7, 15]: 0
Colony Color (Summary) (S pyogenes (stpy); [14]): 0
Colony Color (S pyogenes (stpy); stpy 1027, CO2): 0
Colony Color (S pyogenes (stpy); stpy 1028, CO2): 0
Colony Color (S pyogenes (stpy); stpy 1029, CO2): 0
Colony Color (S pyogenes (stpy); stpy 1030, CO2): 0
Colony Color (S pyogenes (stpy); stpy 19615, CO2): 0
Colony Color (S pyogenes (stpy); stpy 19615, air): 0
Colony Color (S pyogenes (stpy); stpy 49117, CO2): 0
Colony Color (S pyogenes (stpy); stpy 49117, air): 0
Colony Color (S pyogenes (stpy); stpy 51339, CO2): 0
Colony Color (S pyogenes (stpy); stpy 51339, air): 0
Colony Color ([8]; brca 25238): 0
Colony Color ([8]; brca 25240): 0
Colony Color (Summary) [8, 17]: 0
Colony Color (Summary) [9, 15]: 0
Colony Color ([9]; esco 11775, CO2, 21 h): 0
Colony Color ([9]; esco 25922, CO2, 24 h): 0
Colony Color ([9]; esco 25922, air, 24 h): 0
Colony Color ([9]; esco 33605, CO2, 21 h): 0
Colony Color (Summary) [10, 17]: 0
Colony Color ([10]; cifr 8454): 0
Colony Color ([10]; cifr 33128): 0
Colony Color (Candida albicans (caal); CO2): 0
Colony Color (Candida albicans (caal); air): 0
Colony Color (Summary) (Candida albicans (caal); [17]): 0
Colony Color (Summary) [11, 18]: 0
Colony Color ([11]; step 12228, CO2): 0
Colony Color ([11]; step 12228, air): 0
Colony Color ([11]; step cdc1, CO2): 0
Colony Color ([11]; step cdc1, air): 0
Colony Color ([11]; step cdc2, CO2): 0
Colony Color ([11]; step cdc2, air): 0
Colony Color ([11]; step cdc3, CO2): 0
Colony Color ([11]; step cdc3, air): 0
Colony Color ([11]; step cdc4, CO2): 0
Colony Color ([11]; step cdc4, air): 0
Colony Color (cakr 34135): 0
Colony Color (Summary) [12, 18]: 0
Colony Color ([12]; stau 1006, CO2, 21 h): 0
Colony Color ([12]; stau 1007, CO2, 21 h): 0
Colony Color ([12]; stau 1008, CO2, 21 h): 0
Colony Color ([12]; stau 1009, CO2, 21 h): 0
Colony Color ([12]; stau 25923, CO2, 24 h): 0
Colony Color ([12]; stau 25923, air, 24 h): 0
Colony Color (Summary) (S. pneumoniae (stpn); [14]): 0
Colony Color (S. pneumoniae (stpn); stpn 1259, CO2, 21 h): 0
Colony Color (S. pneumoniae (stpn); stpn 1260, CO2, 21 h): 0
Colony Color (S. pneumoniae (stpn); stpn 1331, CO2, 21 h): 0
Colony Color (S. pneumoniae (stpn); stpn 1628, CO2, 21 h): 0
Colony Color (S. pneumoniae (stpn); stpn 6303, CO2, 24 h): 0
Colony Color (S. pneumoniae (stpn); stpn 6303, air, 24 h): 0
Colony Color (S. pneumoniae (stpn); stpn 6305, CO2, 24 h): 0
Colony Color (S. pneumoniae (stpn); stpn 6305, air, 24 h): 0

Oc1c[nH]c2ccc(Br)c(Cl)c12 [5-Bromo-4-chloro-3-indoxyl]
Absorption max (nm) [13]: 615 nm

Oc1c[nH]c2cc(Cl)ccc12 [6-chloro-3-indoxyl]
Absorption max (nm) [13]: 540 nm
